{
  "source": "patent US20240343828A1",
  "about": "“SPINK1 AS A TARGET FOR THERAPEUTIC INTERVENTION IN LUNG DISEASES” (Northwestern University, priority 2023, published 2024)",
  "key": {"mouse lung [1]": {"tested_on": "mouse lung", "test": "Sircol assay of collagen content", "assay_type": "in vivo", "excerpt": "To further understand the impact of Spink1 on lung fibrosis, Applicant performed the molecular experiment to mutate Spink amino acid sequence. Applicant generated two Spink1 variants (protein 2: R19Y and protein 3: R19A) to denote the ones with activity preserved (protein 2: R19Y) and activity ablation (protein 3: R19A). Applicant used these two variants, together with Spink1 wild type protein and PBS, to conduct the animal experiments using healthy mice (FIG. 15)."}, "fibroblasts [2]": {"tested_on": "fibroblasts", "test": "Fibroblast proliferation with Spink1 incubation", "assay_type": "cell-based", "protocol": "FIGS. 23A-23C: In vitro experiment to validate the functional role of Spink1 in mediating stromal cell activity. Gene expression changes in fibroblasts with the incubation of different concentration of Spink1 protein (FIG. 23A). The proliferation rate of fibroblasts with the incubation of Spink1 (FIG. 23B). The proliferation rate was calculated as the difference between end point and start point, followed by the division of start point value. Zero proliferation rate indicates no proliferation is detected. The changes of aSMA gene in fibroblasts with the incubation of Spink1 and EGFR inhibitor of AG1468 (FIG. 23C).\nApplicant also tested the proliferation activity of fibroblast with the incubation of Spink1. […] Furthermore, Applicant hypothesized that the differentiation of fibroblast toward aSMA+ cells could be EGFR pathway dependent."}, "mouse lung [3]": {"tested_on": "mouse lung", "test": "Trichome staining of mouse lung", "assay_type": "in vivo", "details": "Spink1-treated mouse lungs", "protocol": "(§1) The H&E histology experiment and trichome staining assay were conducted in histology core at northwestern university."}, "fibroblasts [4]": {"tested_on": "fibroblasts", "test": "In vitro fibroblast gene expression with Spink1 incubation", "assay_type": "cell-based", "details": "different Spink1 concentrations, 24 hours", "protocol": "Applicant performed an in vitro experiment to further validate the functional role of SPINK1 in mediating fibroblasts and aSMA+ stromal cells. Applicant incubated fibroblasts with different concentration of recombinant mouse Spink1 protein for 24 hours and tested the gene expression level. […] However, the expression level of aSMA was elevated in response to Spink1 treatment (FIG. 23A). This implied that Spink1 could drive the differentiation of fibroblast toward aSMA+ stromal cells."}, "mouse lung [5]": {"tested_on": "mouse lung", "test": "scRNA-seq analysis of lung tissues from the animal experiment", "assay_type": "in vivo", "source_text": "Using the lung tissues collected from our animal experiment, Applicant performed the scRNA-seq analysis and identified 36 different cell types within epithelial, endothelial, stromal and immune compartments (FIG. 17A).\nSince AT2s are the fibrosis driver^21,23, Applicant performed the differential gene expression between bleomycin vs combo treatment to identify the potential genes that are invoked by Spink1."}, "mouse": {"tested_on": "mouse", "details": "mice with bleomycin pre-treatment", "procedure": "Two sets of experiment were set up: one set with bleomycin pretreatment and the other without bleomycin pretreatment(FIG. 10). Applicant labeled as the groups as: PBS, recombinant Spink1 protein, bleomycin and the combo of bleomycin and recombinant Spink1 protein (the last two groups are the one with bleomycin pretreatment).\nFor experiment one, Applicant have four groups as illustrated in FIG. 10. Intrathecal administration was used in this study and 20 ug recombinant protein was injected each time. For the group without bleomycin pretreatment, the animals were injected every third day until they were killed at day 22. For the group with bleomycin pretreatment, the animals were pretreated with bleomycin and then the first dose of recombinant Spink1 protein was injected at day 14 after the bleomycin pretreatment. Another 4 doses were given at day 21, day 24, day 27 and day 30. The animals were killed at day 34 and the tissues were harvested and frozen/fixed for further analysis."}, "mouse lung [6]": {"tested_on": "mouse lung", "test": "H&E staining of mouse lung", "assay_type": "in vivo", "details": "Spink1-treated mouse lungs", "protocol": "as §1"}, "[7]": {"details": "pathway enrichment, PBS vs Spink1 treatment"}},
  "data": [
    {"substance": "Spink1: recombinant mouse Spink1 (Spink3) protein, homologue of human SPINK1, Serine protease inhibitor Kazal-type 1 (AKVTGKEASCHDAVAGCPRIYDPVCGTDGITYANECVLCFENRKRIEPVLIRKGGPC; UniProt P09036 24-80, looked up)", "values": [
      {"measurement": "collagen accumulation (Sircol)", "setting": "mouse lung [1]; healthy animals, no bleomycin pretreatment", "result": "can induce the collagen accumulation"},
      {"measurement": "collagen content (Sircol)", "setting": "mouse lung [1]; mice with Spink1 treatment, 20 ug per injection", "result": "accumulative collagen content"},
      {"measurement": "proliferation rate of fibroblast", "setting": "fibroblasts [2]; 24 hr Spink1 incubation", "result": "high proliferation rate"},
      {"measurement": "proliferation rate of fibroblast", "setting": "fibroblasts [2]; 48 hr incubation", "result": "increased rate disappears"},
      {"measurement": "collagen deposition (trichome staining)", "setting": "mouse lung [3]", "result": "high level of collagen accumulated"},
      {"measurement": "expression level of Col1a1", "setting": "fibroblasts [4]", "result": "not significantly changed"},
      {"measurement": "expression level of Fibronectin", "setting": "fibroblasts [4]", "result": "not significantly changed"},
      {"measurement": "expression level of aSMA", "setting": "fibroblasts [4]", "result": "elevated"},
      {"measurement": "gene set \"Negative regulation of fibroblast proliferation\" (GSEA)", "setting": "mouse lung [5]; AT2, combo vs bleomycin", "result": "induces the down-regulation"},
      {"measurement": "phagosome maturation gene set (GSEA)", "setting": "mouse lung [5]; AT2, combo vs bleomycin", "result": "significantly down-regulated"},
      {"measurement": "expression level of Cdc42", "setting": "mouse lung [5]; mouse treated with Spink1", "result": "significantly decreased expression level"},
      {"measurement": "apoptosis of aSMA+ cells", "setting": "mouse lung [5]; [7]", "result": "arrested the apoptosis of aSMA+ cells"},
      {"measurement": "wound healing pathway in fibroblasts", "setting": "mouse lung [5]; [7]", "result": "downregulated"},
      {"measurement": "expression level of Ftl1", "setting": "mouse lung [5]; regardless of the bleomycin pretreatment", "result": "seems to vanish"},
      {"measurement": "body weight change", "setting": "mouse", "result": "induce weight loss"},
      {"measurement": "alveolar damage and immune cell infiltration (H&E)", "setting": "mouse lung [6]", "result": "notable alveolar damage and immune cell infiltration"}
    ]},
    {"substance": "bleomycin [reference compound]", "values": [
      {"measurement": "Cthrc1+ fibroblasts in stromal compartment", "setting": "mouse lung [5]; mouse lung scRNA-seq", "result": "induces the overproduction of Cthrc1^+ fibroblasts"}
    ]},
    {"substance": "protein 3: R19A: Spink1 variant R19A with activity ablation (AKVTGKEASCHDAVAGCPAIYDPVCGTDGITYANECVLCFENRKRIEPVLIRKGGPC; UniProt P09036 24-80, looked up, variant R19A)", "values": [
      {"measurement": "collagen accumulation (Sircol), Spink1 variants", "setting": "mouse lung [1]; healthy mice, 6 doses, compared with wild type Spink1 and PBS", "result": "fails to induce collagen accumulation"}
    ]}
  ]
}
